# Results reported in ChEMBL document CHEMBL1201862, “PubChem BioAssay data set” (2004).
#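 Protocol summary: plate cells (96-well), add compound at 5 concentrations, incubate 48 h, interpolate endpoints linearly. GI50 = concentration required for 50% inhibition of growth.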 The source made the active and inactive calls. Rule as the data show it: active = GI50 up to about 1.1 µM and inactive = higher.
# Tests used:
# Assay in all cases: inhibition of tumour cell growth, NCI panel, 48 h
# [1] = system: K562
# [2] = system: SF-268
# [3] = system: A549
# [4] = system: NCI-H460
# [5] = system: SK-MEL-28
# [6] = system: SF-295
# [7] = system: HCC 2998
# [8] = system: HCT-15
# [9] = system: SN12C
# [10] = system: HOP-62
# [11] = system: SR
# [12] = system: NCI-H522
# [13] = system: SW-620
# [14] = system: CAKI-1
# [15] = system: SNB-19
Compound,GI50 [1],GI50 [2],GI50 [3],GI50 [4],GI50 [5],GI50 [6],GI50 [7],GI50 [8] [µM],GI50 [9],GI50 [10],GI50 [11],GI50 [12],GI50 [13],GI50 [14],GI50 [15]
CC12CC3C(CC1SCC(=O)O2)C3(C)C (configuration not stated),> 100 µM (inactive),> 100 µM (inactive),> 100 µM (inactive),> 100 µM (inactive),> 100 µM (inactive),> 100 µM (inactive),> 100 µM (inactive),> 100,> 100 µM (inactive),,,,,,
O=[N+]([O-])C1(CO)COC(CCc2ccccc2)OC1 (configuration not stated),> 100 µM (inactive),,> 100 µM (inactive),> 100 µM (inactive),> 100 µM (inactive),> 100 µM (inactive),> 100 µM (inactive),> 100,> 100 µM (inactive),> 100 µM (inactive),> 100 µM (inactive),> 100 µM (inactive),> 100 µM (inactive),,
Cc1cc(C)nc(NS(=O)(=O)c2ccc(NC(=O)c3cccc4c(Nc5ccc(S(=O)(=O)N=C(N)N)cc5)c5ccccc5nc34)cc2)n1,7.6 µM (inactive),22.5 µM (inactive),62.5 µM (inactive),83.6 µM (inactive),33.4 µM (inactive),27.4 µM (inactive),4.85 µM (inactive),30.1,50.7 µM (inactive),37.8 µM (inactive),,44.3 µM (inactive),9.48 µM (inactive),20.5 µM (inactive),33.1 µM (inactive)
CN(C)CC1CCC/C1=N\O (configuration not stated),> 100 µM (inactive),> 100 µM (inactive),,> 100 µM (inactive),> 100 µM (inactive),> 100 µM (inactive),> 100 µM (inactive),> 100,> 100 µM (inactive),> 100 µM (inactive),> 100 µM (inactive),> 100 µM (inactive),> 100 µM (inactive),> 100 µM (inactive),
O=C(CCc1n[nH]c(=S)o1)Nc1cc(Cl)ccc1Cl,23.9 µM (inactive),56.6 µM (inactive),50.6 µM (inactive),51.3 µM (inactive),> 100 µM (inactive),> 100 µM (inactive),> 100 µM (inactive),20.7,> 100 µM (inactive),> 100 µM (inactive),,,15.3 µM (inactive),> 100 µM (inactive),> 100 µM (inactive)
c1ccc(C2(c3ccccc3)SSC3(S2)C2CC4CC(C2)CC3C4)cc1 (configuration not stated),> 100 µM (inactive),> 100 µM (inactive),> 100 µM (inactive),> 100 µM (inactive),> 100 µM (inactive),> 100 µM (inactive),> 100 µM (inactive),> 100,> 100 µM (inactive),,> 59.2 µM (inactive),,> 100 µM (inactive),> 100 µM (inactive),> 100 µM (inactive)
N#CC(C(=O)/C(=N\NC(N)=O)C(C#N)c1ccc(Cl)cc1)c1ccc(Cl)cc1 (configuration not stated),> 100 µM (inactive),> 100 µM (inactive),> 100 µM (inactive),> 100 µM (inactive),> 100 µM (inactive),> 100 µM (inactive),,> 100,> 100 µM (inactive),> 100 µM (inactive),,> 100 µM (inactive),> 100 µM (inactive),,> 100 µM (inactive)
Cc1ccc(C2=C(c3ccc(C)cc3)C(c3ccc(C)cc3)=C(c3ccc(C)cc3)C2=O)cc1,> 100 µM (inactive),> 100 µM (inactive),> 100 µM (inactive),> 100 µM (inactive),> 100 µM (inactive),> 100 µM (inactive),,> 100,> 100 µM (inactive),> 100 µM (inactive),> 100 µM (inactive),> 100 µM (inactive),> 100 µM (inactive),,> 100 µM (inactive)
Cc1cn(C2CC(OC3CCCCO3)C(CO)O2)c(=O)[nH]c1=O (configuration not stated),> 100 µM (inactive),> 100 µM (inactive),> 100 µM (inactive),> 100 µM (inactive),> 100 µM (inactive),> 100 µM (inactive),> 100 µM (inactive),> 100,> 100 µM (inactive),> 100 µM (inactive),> 100 µM (inactive),> 100 µM (inactive),> 100 µM (inactive),,> 100 µM (inactive)
COc1c(Br)cc(Br)c(OC)c1-c1ccc[nH]1,22.3 µM (inactive),> 100 µM (inactive),> 100 µM (inactive),> 100 µM (inactive),> 100 µM (inactive),> 100 µM (inactive),,55.8,,> 100 µM (inactive),,55.1 µM (inactive),35 µM (inactive),13.3 µM (inactive),
COC(=O)c1nc(-c2ccc(Cl)c(Cl)c2)nc2ccc(Cl)cc12,> 10 µM (inactive),92.9 µM (inactive),97.7 µM (inactive),> 100 µM (inactive),> 100 µM (inactive),37.7 µM (inactive),> 100 µM (inactive),,> 100 µM (inactive),,> 100 µM (inactive),> 10 µM (inactive),> 100 µM (inactive),> 10 µM (inactive),44.1 µM (inactive)
